The term Tmax denotes the time at which the peak concentration occurs.

Among the data in ChEMBL document CHEMBL3832028, “DailyMed|setid=372af566-d6ec-446f-88db-0b4cc83b577f | GLYBURIDE AND METTFORMIN HYDROCHLORIDE - glyburide and hydrochloride tablet, film coated| Citron Pharma LLC” are Tmax values, retold here.

The nature of this series: Tmax for Glyburide following single oral co-administration of 5 mg glyburide and 500 mg metformin hydrochloride to feeding subjects. Conditions: human, in vivo, dietary status Fed, dosed compound id 13, dosed compound name GLYBURIDE, regimen Single dose, tissue Plasma. In kind it is ADME, organism-based.

With `COc1ccc(Cl)cc1C(=O)NCCc1ccc(S(=O)(=O)NC(=O)NC2CCCCC2)cc1` [GLYBURIDE], the Tmax worked out at 2.75 h.
